# In PubChem BioAssay (NCI):
# Several values for one entry are separate records, joined by “and”; a condition that tells them apart may be missing. Identical values can stand only once.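 Five compound concentrations were applied to cells in 96-well plates for 48 hours; endpoints were derived by simple linear interpolation of the resulting dose-response curve. GI50 is the concentration that inhibits growth by half. The concentration for full growth arrest is given as TGI.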
# Tests used:
# Assay in all cases: NCI tumour cell line growth inhibition, 48 h
# SNB-19 CNS = system: SNB-19 CNS
# P388/ADR leukemia = system: P388/ADR leukemia
# RPMI-8226 leukemia = system: RPMI-8226 leukemia
# SR leukemia = system: SR leukemia
# UACC-62 melanoma = system: UACC-62 melanoma
# SNB-78 CNS = system: SNB-78 CNS
# RXF 393 renal = system: RXF 393 renal
# HCC-2998 colon = system: HCC-2998 colon
# HL-60(TB) leukemia = system: HL-60(TB) leukemia
# ACHN renal = system: ACHN renal
# K-562 leukemia = system: K-562 leukemia
# LXFL 529 NSCLC = system: LXFL 529 NSCLC
# HOP-92 NSCLC = system: HOP-92 NSCLC
# SK-MEL-5 melanoma = system: SK-MEL-5 melanoma
# SF-539 CNS = system: SF-539 CNS
# SF-295 CNS = system: SF-295 CNS
# DU-145 prostate = system: DU-145 prostate
# NCI/ADR-RES ovarian = system: NCI/ADR-RES ovarian
# MDA-N = system: MDA-N
# SF-268 CNS = system: SF-268 CNS
smiles,measurement,setting,value
O=NN(CCCl)C(=O)NCCCl,GI50,SNB-19 CNS,61.1 µM and 169 µM
same,TGI,SNB-19 CNS,250 µM and 168 µM and > 380 µM
same,TGI,P388/ADR leukemia,48 µM
same,GI50,RPMI-8226 leukemia,34.3 µM and 118 µM
same,TGI,RPMI-8226 leukemia,120 µM and 198 µM and 260 µM
same,GI50,SR leukemia,38.5 µM
same,TGI,SR leukemia,122 µM and 97.7 µM
same,GI50,UACC-62 melanoma,44.9 µM and > 151 µM
same,TGI,UACC-62 melanoma,169 µM and 91.9 µM and > 260 µM
same,TGI,SNB-78 CNS,198 µM
same,GI50,RXF 393 renal,45.3 µM and > 238 µM
same,TGI,RXF 393 renal,86.6 µM and 149 µM and > 299 µM
same,GI50,HCC-2998 colon,63.5 µM and 260 µM
same,TGI,HCC-2998 colon,161 µM and 201 µM and > 370 µM
same,GI50,HL-60(TB) leukemia,30.5 µM and 11.3 µM
same,TGI,HL-60(TB) leukemia,89.3 µM and 67.3 µM and 28.9 µM
same,GI50,ACHN renal,64.4 µM
same,TGI,ACHN renal,170 µM and 172 µM
same,TGI,K-562 leukemia,44.6 µM and 206 µM and 280 µM
same,TGI,LXFL 529 NSCLC,141 µM
same,GI50,HOP-92 NSCLC,193 µM
same,TGI,HOP-92 NSCLC,151 µM and > 262 µM
same,GI50,SK-MEL-5 melanoma,95.6 µM and 362 µM
same,TGI,SK-MEL-5 melanoma,250 µM and 161 µM and > 500 µM
same,GI50,SF-539 CNS,31 µM and 84.1 µM
same,TGI,SF-539 CNS,92.6 µM and 116 µM and 190 µM
same,GI50,SF-295 CNS,36.3 µM and 123 µM
same,TGI,SF-295 CNS,250 µM and 126 µM and > 380 µM
same,GI50,DU-145 prostate,95 µM and 296 µM
same,TGI,DU-145 prostate,250 µM and 364 µM and > 377 µM
same,GI50,NCI/ADR-RES ovarian,61.7 µM and 266 µM
same,TGI,NCI/ADR-RES ovarian,156 µM and 234 µM and > 422 µM
same,GI50,MDA-N,210 µM
same,TGI,MDA-N,158 µM and > 301 µM
same,GI50,SF-268 CNS,31 µM
same,TGI,SF-268 CNS,98.4 µM and 138 µM and > 259 µM
